# Earlier results as cited in patent publication US20080124416A1 (RENAISSANCE HERBS, INC., priority 2006, published 2008).
# Tests used:
# [1] = in vivo
# [2] = tested on: hepatic fibrosis; settings: 12.5 or 25 mg/kg p.o.
# [3] = tested on: human lens epithelial (HLE) cells; settings: in vitro
# [4] = in vitro
# [5] = tested on: rat cortical and trabecular bone tissues
# [6] = tested on: osteoblastic MC3T3-E1 cells
# [7] = tested on: mouse marrow cultures
# [8] = tested on: cultured bone cells from the femoral tissues; settings: micromole amounts
# [9] = tested on: diabetes (streptozotocin-induced); settings: oral, 50 or 100 μg/kg/day for 14 days
smiles,measurement,setting,value
CCCCCCCCCCCCCCCC(=O)O[C@@H]1CC(C)=C(/C=C/C(C)=C/C=C/C(C)=C/C=C/C=C(C)/C=C/C=C(C)/C=C/C2=C(C)CCCC2(C)C)C(C)(C)C1 [β-Cryptoxanthinpalmitate],human bioavailability of esterified vs free form,[1],comparable
CC1=C(/C=C/C(C)=C/C=C/C(C)=C/C=C/C=C(C)/C=C/C=C(C)/C=C/C2=C(C)C[C@@H](O)CC2(C)C)C(C)(C)C[C@H](O)C1 [zeaxanthin],"TBARS, collagen deposition, 4-hydroxyproline levels, serum ALP and AST",[2],significantly decreased
same,activities of glutathione-S-transferase and glutathione,[2],significantly increased
same,UVB light-induced lipid peroxidation,[3],inhibits
same,"antioxidative activity against A2-PE, a pro-oxidant protein in retinal pigment cells",[4],antioxidative activity
CC1=C(/C=C/C(C)=C/C=C/C(C)=C/C=C/C=C(C)/C=C/C=C(C)/C=C/C2=C(C)C[C@@H](O)CC2(C)C)C(C)(C)CCC1 [β-cryptoxanthin],decrease in calcium content induced by prostaglandin E2 and parathyroid hormone,[5],completely inhibits
same,"transcriptional activity, proliferation, cell differentiation and mineralization",[6],stimulates
same,osteoblast-like cell formation induced by bone-resorbing factors,[7],potently inhibits
same,alkaline phosphatase activity and calcium content,[8],significantly increases
same,"symptoms of diabetes (serum glucose, triglycerides, calcium, body weight, bone loss)",[9],significantly attenuate
